Patent publication US20190209576A1 (AI Therapeutics, Inc., priority 2014, published 2019)

Tests used:
Type in all cases: cell-based
HT-29 cells = assay: Cell viability (CellTiterGlo), single agent, 120 h; settings: Homo sapiens, HT-29, BRAF Mutant (V600E), 5 day assay
Method: (§1) For drug studies, HCT116, HT-29, RKO, HCT-15, SW1116, SW480 and SW620 cells were seeded at a density of 750, 8000, 300, 480, 1600, 2000, and 2000 cells per well, respectively, into 96 well plates in a final volume of 50 μL.
(§2) The apilimod used in these studies was apilimod dimesylate.
(§3) All drug dilutions were made up as a 2× stock and 50 μL added to appropriate wells. Cells were treated for 120 h before viability was assessed using CellTiterGlo® (Promega) where the relative luminescence of untreated cells was set to 100% viability and each drug concentration expressed as a percentage of untreated cells. EC50 values were determined using GraphPad Prism (GraphPad Software, Inc). Briefly, raw data was log transformed and then analyzed using nonlinear regression (curve fit) where the data were constrained (bottom=0, top=100).

HCT116 cells = assay: Cell viability (CellTiterGlo), single agent, 120 h; settings: Homo sapiens, HCT-116, 120 h; HCT116, BRAF WT, 5 day assay
Method: as §1, §2, §3

SW480 cells = assay: Cell viability (CellTiterGlo), single agent, 120 h; settings: Homo sapiens, SW480, BRAF WT, 5 day assay
Method: as §1, §2, §3

HCT-15 cells = assay: Cell viability (CellTiterGlo), single agent, 120 h; settings: Homo sapiens, HCT-15, BRAF WT, 5 day assay
Method: as §1, §2, §3

SW620 cells = assay: Cell viability (CellTiterGlo), single agent, 120 h; settings: Homo sapiens, SW-620, 120 h; SW620, BRAF WT, 5 day assay
Method: as §1, §2, §3

SW1116 cells = assay: Cell viability (CellTiterGlo), single agent, 120 h; settings: Homo sapiens, SW 1116, 120 h; SW1116, BRAF WT, 5 day assay
Method: as §1, §2, §3

RKO cells = assay: Cell viability (CellTiterGlo), single agent, 120 h; settings: Homo sapiens, BRAF Mutant (V600E), 5 day assay
Method: as §1, §2, §3

colon cancer cell lines = assay: LAM-002 sensitivity (EC90) correlated with SNX10 expression; settings: 10 point dose response
Text: Expression profiles were obtained from the public databases CCLE (Barretina, Caponigro, Stransky et al. The Cancer Cell Line Encyclopedia enables predictive modelling of anticancer drug sensitivity. Nature. 2012 Mar. 28; 483(7391):603-7) and COSMIC (Forbes SA1, Beare D2, Gunasekaran P2, et al. COSMIC: exploring the world's knowledge of somatic mutations in human cancer. Nucleic Acids Res. 2015 January; 43 (Database issue):D805-11). R statistical package (R Development Core Team (2008). R: A language and environment for statistical computing. R Foundation for Statistical Computing, Vienna, Austria. ISBN 3-900051-07-0) was used for the normalization of expression and the correlation analysis.
To determine LAM-002 sensitivity in colon cancer cell lines, the EC90 was calculated using a 10 point dose response as described above for EC50 determination. […] These findings support SNX10 expression as a predictive biomarker for LAM-002 sensitivity in colon cancer cells.

With `Cc1cccc(/C=N/Nc2cc(N3CCOCC3)nc(OCCc3ccccn3)n2)c1` [Apilimod] the EC50 (HT-29 cells) was 19 nM, the EC50 (HCT116 cells) was 10 nM and the EC50 (SW480 cells) was 24 nM. It also gave an EC50 (HCT-15 cells) of 15 nM, an EC50 (SW620 cells) of 9 nM and an EC50 (SW1116 cells) of 12 nM. The EC50 (RKO cells) was 52 nM and the “correlation between SNX10 expression and LAM-002 sensitivity (EC90)” value (colon cancer cell lines) was “colon cancer cells expressing higher levels of SNX10 are the most sensitive to LAM-002”.
